Data from patent US12419890B2, “Administration of sumo-activating enzyme inhibitor and checkpoint inhibitors” (Takeda Pharmaceutical Company Limited, priority 2019, dated 2025).

Tests used:
[1] = tested on: CT26 syngeneic mouse colon fibroblast carcinoma-derived subcutaneous tumor; assay: CT26 Study 2: mouse CT26 syngeneic tumor model, individual tumor volume; format: in vivo; conditions: Compound I-263a 7.5 mg/kg IV and anti-mPD-1 10 mg/kg IP, Day 0, 3, 7, 10, 14; 9 tumors/group
Description: CT26 Study 2: CT26 is a mouse colon fibroblast carcinoma cell line. CT26 mouse syngeneic tumor model was generated by subcutaneous inoculation with 0.2×10^6 CT-26 cells (cell suspension) in 10 weeks old female BALB/c mice (Vital River Laboratory Animal Technology Co., Ltd., Beijing, China) in the flank. When the mean tumor volume reached approximately 40 mm^3, the animals were randomized into one vehicle control and three treatment groups (n=9/group). Mice were then dosed with 20% HPbCD or Compound I-263a or anti-mouse PD-1 antibody over a 14-day period. Tumor growth and body weight were measured twice per week during the treatment and post-treatment periods, and mice were humanely euthanized once they had reached their humane endpoint.
(§1) Study 2: A 0.75 mg/mL stock solution of Compound I-263a was formulated weekly in 20% HPβCD and administered intravenously (IV) based on exact animal body weight on each day of treatment, using a dosing volume of 10 mL/kg body weight. Final doses received were 7.5 mg/kg. Dosing volume for Compound I-263a was 0.2 mL. […]
(§2) Tumors were measured twice weekly using vernier calipers. Tumor volumes were calculated using standard equation: V=W^2×L/2, where V=volume, W=width, and L=length for the tumor. […] Tumor size and body weight were measured twice a week for the duration of the study. […]

[2] = tested on: WEHI-3 syngeneic mouse myelomonocytic leukemia-derived subcutaneous tumor; assay: WEHI-3 Study 4: mouse WEHI-3 syngeneic tumor model, individual tumor volume; format: in vivo; conditions: Compound I-263a 7.5 mg/kg IV BIWx3
Description: WEHI-3 Study 4: WEHI-3 is a mouse myelomonocytic leukemia cell line. WEHI-3 mouse syngeneic tumor model was generated by subcutaneous inoculation with 0.1×10^6 WEHI-3 cells (cell suspension) in 13 weeks old female BALB/c mice (Jackson Laboratory, 600 Main St, Bar Harbor, ME) in the flank. When the mean tumor volume reached approximately 50 mm^3, the animals were randomized into one vehicle control and five treatment groups (n=8/group). Mice were then dosed with 20% HPbCD or Compound I-263a or anti-mouse PD-1 antibody or anti-mouse CTLA-4 antibody over a 21-day period. Tumor growth and body weight were measured twice per week during the treatment and post-treatment periods, and mice were humanely euthanized once they had reached their humane endpoint.
as §1, with “4:” for “2:”, “1.01” for “0.75”
as §2

Cc1sc(C(=O)c2cncnc2N[C@@H]2C[C@H](COS(N)(=O)=O)[C@@H](O)C2)cc1[C@@H]1NCCc2ccc(Cl)cc21 [Compound I-263a, [(1R,2S,4R)-4-{[5-({4-[(1R)-7-chloro-1,2,3,4-tetrahydroisoquinolin-1-yl]-5-methyl-2-thienyl}carbonyl)pyrimidin-4-yl]amino}-2-hydroxycyclopentyl]methyl sulfamate]
tumor growth inhibition relative to vehicle-treated tumors [1]: did not show any tumor growth inhibition | effect on tumor growth ([2]; 8 tumors/group): very little effect | slight tumor growth delays ([2]; delay to day 14, out of 8 implanted tumors): 2
